This is an account of results in patent publication US5283256A, “Cholesterol-lowering agents” (Merck & Co., Inc., priority 1992, dated 1994).

Test [1] deals with T1, squalene synthase (human HepG2 enzyme) (Homo sapiens, UniProt P37268).
T1 construct: The resulting pellet from the 100,000×g centrifugation, containing the squalene synthase; endogenous in cells; host or cells: HepG2 (ATCC HB 8065), microsomal pellet of sonicated cells
T1 sequence (P37268 1-417): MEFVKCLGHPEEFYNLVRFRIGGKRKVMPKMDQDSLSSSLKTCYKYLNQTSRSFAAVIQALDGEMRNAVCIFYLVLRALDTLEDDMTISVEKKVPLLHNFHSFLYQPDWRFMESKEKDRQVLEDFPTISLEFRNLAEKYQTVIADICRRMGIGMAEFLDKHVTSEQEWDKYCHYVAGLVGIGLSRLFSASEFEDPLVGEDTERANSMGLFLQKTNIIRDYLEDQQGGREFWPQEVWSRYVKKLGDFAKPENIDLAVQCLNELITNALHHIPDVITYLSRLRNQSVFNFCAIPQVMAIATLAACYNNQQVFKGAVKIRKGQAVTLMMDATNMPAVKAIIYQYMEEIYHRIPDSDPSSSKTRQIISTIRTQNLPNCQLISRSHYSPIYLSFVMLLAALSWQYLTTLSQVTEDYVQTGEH
The test is described as follows: Squalene synthase assay, human HepG2 cell enzyme. Conditions: 3H-farnesyl pyrophosphate, 30° C., 20 min. The format is biochemical. As to the method: The intrinsic squalene synthase inhibitory activity of representative compounds of this invention was measured by the standard in vitro protocol described below:
PREPARATION OF HUMAN HepG2 Cell ENZYME
1. SOURCE: HEPG2 CELL LINE (Liver, hepatoblastoma, Human) ATCC No. HB 8065
2. CELL GROWTH AND MAINTENANCE
Culture Medium: Minimum essential medium (MEM) with non-essential amino acids, sodium pyruvate, and 10% fetal bovine serum. The medium was changed twice weekly. […] The growth medium was prepared as listed below.
SUBCULTURE PROCEDURE: The medium was removed and washed with PBS (Phosphate-Buffered Saline 15.6 mM, pH 7.0). Fresh trypsin (0.25%)-EDTA (0.02%) with Hank's Balanced Salt solution was added and the flask was allowed to stand for a minute before the trypsin solution was removed. The flask was incubated at 37° C. until cells detached. Fresh medium was added and the cells were dispersed and dispensed into new flasks. Subcultivation ratio: 1:6. […]
HARVEST: The medium was removed and the cells were washed with PBS. […] Cells were counted (2.5×10^9 yield from 18 flasks (75 cm^2)), and resuspended in 10 mL of 50mM HEPES (N-[2-Hydroxyethyl]piperazine-N'-[2-ethane sulfonic acid]) containing 5 mM MgCl2, 2 mM MnCl2, 10 mM DTT, pH 7.5 (enzyme suspension buffer). […]

The target in test [2] is T2, squalene synthase (rat liver enzyme) (Rattus norvegicus, UniProt Q02769).
T2 construct: from tissue; host or cells: liver microsomes of male Charles River CD rats fed lovastatin
T2 sequence (Q02769 1-416): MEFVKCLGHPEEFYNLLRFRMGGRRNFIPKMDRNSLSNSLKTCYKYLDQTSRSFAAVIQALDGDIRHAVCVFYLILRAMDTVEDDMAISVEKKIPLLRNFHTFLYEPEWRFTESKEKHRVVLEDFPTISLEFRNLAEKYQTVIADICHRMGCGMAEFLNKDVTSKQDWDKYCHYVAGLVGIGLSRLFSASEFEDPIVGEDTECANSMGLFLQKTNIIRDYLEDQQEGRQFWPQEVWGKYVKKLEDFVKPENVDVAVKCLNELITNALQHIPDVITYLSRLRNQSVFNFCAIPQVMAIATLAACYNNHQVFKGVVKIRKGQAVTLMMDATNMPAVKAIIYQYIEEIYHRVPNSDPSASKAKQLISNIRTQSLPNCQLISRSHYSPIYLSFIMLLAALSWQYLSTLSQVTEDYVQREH
As to the kind of experiment: Squalene synthase assay, rat liver microsomes. The format is biochemical. Conditions: 3H-farnesyl pyrophosphate, 30° C., 20 min. On the procedure:
The intrinsic squalene synthase inhibitory activity of representative compounds of this invention was measured by the standard in vitro protocol described below: […] Male, CHARLES RIVER CD rats (120 to 150 g) were fed a diet containing 0.1% lovastatin for 4 days. […] The homogenate was centrifuged twice at 20,000×g for 15 min. at 4° C., discarding the pellet each time. The supernatant was then centrifuged at 100,000×g for 1 hr at 4° C. The resulting microsomal pellet was resuspended in a volume of the above homogenizing buffer equal to one-fifth the volume of the original homogenate. […] The microsomal suspensions were stored in aliquots at -70° C. squalene synthase activity in these aliquots is stable for a least several months. Squalene Synthase Assay Reactions were performed in 1.2 mL polypropylene tube strips of 8. Buffer mixture and substrate mixture for the assay were prepared from the following solution: Buffer mixture contains 270 mM HEPES, pH 7.5, 20 mM Potassium fluoride and 5.4 mM Dithiothreitol (DTT). […] 400 μL of heptane layer was then removed into a minivial and mixed with 2.5 mL of scintillation fluid and the radioactivity was determined by liquid scintillation counting. […] Percent inhibition is calculated by the formula: [formula] IC50 values were determined by plotting the log of the concentration of the test compound versus the percentage inhibition. […]

For test [3], the target named is farnesyl transferase (Homo sapiens, UniProt P49354+P49356). The test is described as follows: Farnesyl-transferase assay (Ras farnesylation in vitro). The format is biochemical. Conditions: ras-CVLS, 3H-FPP 100 nM; 60 min, room temperature; read-out: Farnesyl transferase IC50 (inhibition of Ras farnesylation in vitro). As to the method: FARNESYL-TRANSFERASE ASSAY
I. PREPARATION OF SOLUTIONS REQUIRED FOR THE ASSAY
203.3 g MgCl2 was dissolved in 1.0 L distilled water, and filtered through a sterile filter and stored at 4° C.
264.5 g of HEPES was added to 700 mL distilled water followed by 56 mL of 1.0M MgCl2 The pH was adjusted to 7.5 with sodium hydroxide and the volume was brought to 1000 mL. The solution was filtered through a sterile filter and stored at 4° C.
iii. 0.5M Dithiothreitol (DTT, MW=154.24)
77.12 mg of DTT was dissolved in 1.0 mL of distilled water. A few drops of 10N NaOH was added to get the DTT to go into solution. 0.5M DTT was divided into 500 μL aliquots and stored at -20° C.
iv. Preparation of Assay Buffer (Prepare fresh daily)
100 μL of 0.5M DTT was added to 900 μL of 1.1M HEPES, pH 7.5 and 55.5 mM MgCl2 to yield a 10X buffer consisting of 1.0M HEPES, pH 7.5, 50 mM MgCl2 and 50 mM DTT.
v. Preparation of ^3 H-FPP
The ^3 H-FPP (NEN #NET-1042, MW=433.3) was used directly from the bottle as provided by NEN. The stock concentration of the ^3 H-FPP was 25 μM.
vi. Preparation of the reaction mix for Totals and unknown samples (on ice)
The reaction mix was prepared as below: […]
x. The filter mats were placed in counting bags, 30 mL of LKB β-scint cocktail was added and the filter mats were counted for 120 sec in the LKB β-plate counter […]
Percent inhibition was calculated according to the following equation: [formula] […]

The subject of test [4] is Ras farnesylation. Conditions: Hancock et al., Casey et al., Schafer et al.; cited from earlier work.

Each structure is given as a SMILES string.

In general, IC50 refers to the midpoint of a concentration-inhibition curve. In the case of `CCCCCCCCCC(=O)OC1C(O)C2(CCCC(OC(C)=O)C(C)C/C=C/c3ccccc3)OC(C(=O)O)C(O)(C(=O)O)C1(C(=O)O)O2` (centres unmarked) [Zaragozic Acid D2], the figures for the IC50 in test [1], in test [2] and in test [3] were 2 nM, 6 nM and 100 nM, respectively.
In the same order, the values of `CCCCCCCC(=O)OC1C(O)C2(CCCC(OC(C)=O)C(C)C/C=C/c3ccccc3)OC(C(=O)O)C(O)(C(=O)O)C1(C(=O)O)O2` (centres unmarked) [Zaragozic Acid D] are 1 nM, 6 nM and 100 nM.
In the case of `CC[C@H](C)C(=O)O[C@H]1CCC=C2C=C[C@H](C)[C@H](CC[C@@H]3C[C@@H](O)CC(=O)O3)[C@H]21` [compactin], the “Inhibition of Ras farnesylation in vivo (in words)” value in test [4] is on record as “Inhibition of Ras farnesylation in vivo has been demonstrated”.
With `CC[C@H](C)C(=O)O[C@H]1C[C@@H](C)C=C2C=C[C@H](C)[C@H](CC[C@@H]3C[C@@H](O)CC(=O)O3)[C@H]21` [lovastatin], the “Inhibition of Ras farnesylation in vivo (in words)” value in test [4] is on record as “Inhibition of Ras farnesylation in vivo has been demonstrated”.
